PubChem BioAssay (NCI)
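Here, GI50 denotes the concentration required for 50% inhibition of growth. TGI is the concentration that stops growth completely.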

What was measured:
Assay in all cases: inhibition of tumour cell growth, NCI panel, 384-well format
[1] = tested on: NCI-H322M lung
[2] = tested on: UACC-257 melanoma
[3] = tested on: UO-31 renal
[4] = tested on: SK-OV-3 ovarian
[5] = tested on: SF-268 CNS
[6] = tested on: U251 glioblastoma
[7] = tested on: OVCAR-4 ovarian
[8] = tested on: SK-MEL-28 melanoma
[9] = tested on: NCI-H522 lung
[10] = tested on: DU-145 prostate
[11] = tested on: MALME-3M melanoma
[12] = tested on: SNB-75 CNS
[13] = tested on: NCI-H23 lung
[14] = tested on: BT-549 breast
[15] = tested on: KM12 colon
[16] = tested on: HOP-92 NSCLC
[17] = tested on: NCI-H226 lung
[18] = tested on: IGROV1 ovarian
[19] = tested on: RXF 393 renal
[20] = tested on: OVCAR-5 ovarian
[21] = tested on: MDA-MB-231 breast
[22] = tested on: LOX IMVI melanoma
[23] = tested on: K-562 leukemia
[24] = tested on: RPMI-8226 leukemia
[25] = tested on: HS 578T breast
[26] = tested on: SN12C renal
[27] = tested on: SR leukemia
[28] = tested on: CAKI-1 renal
[29] = tested on: SK-MEL-5 melanoma
[30] = tested on: EKVX NSCLC
[31] = tested on: HCT-15 colon
[32] = tested on: SK-MEL-2 melanoma
[33] = tested on: HL-60(TB) leukemia
[34] = tested on: UACC-62 melanoma
[35] = tested on: HCT-116 colon
[36] = tested on: SNB-19 CNS
[37] = tested on: TK-10 renal
[38] = tested on: PC-3 prostate
[39] = tested on: MOLT-4 leukemia
[40] = tested on: SF-539 CNS
[41] = tested on: COLO 205 colon
[42] = tested on: CCRF-CEM leukemia
[43] = tested on: A549 NSCLC
[44] = tested on: NCI-H460 NSCLC
[45] = tested on: ACHN renal
[46] = tested on: A498 renal
[47] = tested on: OVCAR-3 ovarian
[48] = tested on: SW-620 colon
[49] = tested on: MDA-MB-468 breast
[50] = tested on: SF-295 CNS
[51] = tested on: MDA-MB-435 melanoma
[52] = tested on: HCC-2998 colon
[53] = tested on: M14 melanoma
[54] = tested on: HOP-62 NSCLC
[55] = tested on: HT29 colon
[56] = tested on: MCF7 breast
[57] = tested on: 786-0 renal

How did the GI50 [1] turn out when `Cc1[nH]c2ccc(F)cc2c1-c1nc2c3cccnc3c3ncccc3c2[nH]1` was run?
The GI50 was 125 nM.

And the TGI [1]?
Its TGI is 28500 nM.

And the GI50 [2]?
The GI50 was 227 nM.

What about the TGI [2] of the same compound?
Its TGI is 603 nM.

What about the GI50 [3] of the same compound?
The GI50 was 319 nM.

What about the TGI [3] of the same compound?
The TGI was 7710 nM.

What about the GI50 [4] of the same compound?
The GI50 was 44.9 nM.

And the TGI [4]?
The TGI was 9450 nM.

And the GI50 [5]?
Its GI50 is 25 nM.

What about the TGI [5] of the same compound?
Its TGI is 83.1 nM.

What about the GI50 [6] of the same compound?
Its GI50 is 63.7 nM.

And the TGI [6]?
The TGI was 710 nM.

And the GI50 [7]?
The GI50 was 96 nM.

What about the TGI [7] of the same compound?
Its TGI is > 100000 nM.

What about the GI50 [8] of the same compound?
The GI50 was 272 nM.

What about the TGI [8] of the same compound?
Its TGI is > 100000 nM.

What about the GI50 [9] of the same compound?
Its GI50 is 244 nM.

What about the TGI [9] of the same compound?
Its TGI is 852 nM.

And the GI50 [10]?
Its GI50 is 60.7 nM.

What about the TGI [10] of the same compound?
Its TGI is 413 nM.

What about the GI50 [11] of the same compound?
The GI50 was 195 nM.

And the TGI [11]?
Its TGI is 743 nM.

What about the GI50 [12] of the same compound?
The GI50 was 230 nM.

And the TGI [12]?
Its TGI is 759 nM.

What about the GI50 [13] of the same compound?
Its GI50 is 233 nM.

What about the TGI [13] of the same compound?
Its TGI is 704 nM.

What about the GI50 [14] of the same compound?
Its GI50 is 41.8 nM.

And the TGI [14]?
Its TGI is 254 nM.

What about the GI50 [15] of the same compound?
The GI50 was 266 nM.

And the TGI [15]?
The TGI was > 100000 nM.

What about the GI50 [16] of the same compound?
The GI50 was 194 nM.

And the TGI [16]?
The TGI was 742 nM.

What about the GI50 [17] of the same compound?
The GI50 was 147 nM.

What about the TGI [17] of the same compound?
Its TGI is 683 nM.

And the GI50 [18]?
Its GI50 is 182 nM.

And the TGI [18]?
Its TGI is 32900 nM.

What about the GI50 [19] of the same compound?
The GI50 was 31.4 nM.

And the TGI [19]?
The TGI was 192 nM.

And the GI50 [20]?
The GI50 was 298 nM.

What about the TGI [20] of the same compound?
The TGI was 17600 nM.

What about the GI50 [21] of the same compound?
The GI50 was 228 nM.

And the TGI [21]?
The TGI was 2930 nM.

What about the GI50 [22] of the same compound?
Its GI50 is 62.5 nM.

What about the TGI [22] of the same compound?
The TGI was 231 nM.

What about the GI50 [23] of the same compound?
Its GI50 is 217 nM.

And the TGI [23]?
The TGI was > 100000 nM.

And the GI50 [24]?
The GI50 was 3110 nM.

And the TGI [24]?
The TGI was 15000 nM.

And the GI50 [25]?
The GI50 was 318 nM.

And the TGI [25]?
Its TGI is 12100 nM.

And the GI50 [26]?
Its GI50 is 161 nM.

What about the TGI [26] of the same compound?
Its TGI is 397 nM.

And the GI50 [27]?
Its GI50 is 19.2 nM.

What about the TGI [27] of the same compound?
Its TGI is 33.9 nM.

What about the GI50 [28] of the same compound?
Its GI50 is 218 nM.

And the TGI [28]?
Its TGI is 572 nM.

What about the GI50 [29] of the same compound?
Its GI50 is 25.2 nM.

What about the TGI [29] of the same compound?
Its TGI is 119 nM.

What about the GI50 [30] of the same compound?
The GI50 was 122 nM.

What about the TGI [30] of the same compound?
Its TGI is 14200 nM.

And the GI50 [31]?
The GI50 was 245 nM.

What about the TGI [31] of the same compound?
The TGI was 29900 nM.

And the GI50 [32]?
Its GI50 is 353 nM.

And the TGI [32]?
The TGI was 934 nM.

What about the GI50 [33] of the same compound?
The GI50 was 45.3 nM.

And the TGI [33]?
Its TGI is 176 nM.

And the GI50 [34]?
Its GI50 is 204 nM.

What about the TGI [34] of the same compound?
Its TGI is 587 nM.

What about the GI50 [35] of the same compound?
The GI50 was 52.1 nM.

What about the TGI [35] of the same compound?
Its TGI is 654 nM.

And the GI50 [36]?
Its GI50 is 241 nM.

And the TGI [36]?
Its TGI is 883 nM.

And the GI50 [37]?
Its GI50 is 450 nM.

And the TGI [37]?
The TGI was 18800 nM.

What about the GI50 [38] of the same compound?
The GI50 was 69.9 nM.

And the TGI [38]?
Its TGI is > 100000 nM.

And the GI50 [39]?
Its GI50 is 37.4 nM.

And the TGI [39]?
The TGI was 151 nM.

And the GI50 [40]?
The GI50 was 125 nM.

What about the TGI [40] of the same compound?
Its TGI is 404 nM.

What about the GI50 [41] of the same compound?
Its GI50 is 35.3 nM.

And the TGI [41]?
Its TGI is 141 nM.

And the GI50 [42]?
The GI50 was 37.6 nM.

And the TGI [42]?
Its TGI is 136 nM.

And the GI50 [43]?
The GI50 was 421 nM.

What about the TGI [43] of the same compound?
The TGI was > 100000 nM.

And the GI50 [44]?
The GI50 was 367 nM.

And the TGI [44]?
Its TGI is 4260 nM.

And the GI50 [45]?
The GI50 was 241 nM.

And the TGI [45]?
The TGI was 686 nM.

And the GI50 [46]?
The GI50 was 205 nM.

And the TGI [46]?
Its TGI is > 100000 nM.

What about the GI50 [47] of the same compound?
The GI50 was 27.8 nM.

And the TGI [47]?
The TGI was 22200 nM.

What about the GI50 [48] of the same compound?
Its GI50 is 336 nM.

What about the TGI [48] of the same compound?
Its TGI is > 100000 nM.

What about the GI50 [49] of the same compound?
Its GI50 is 74.5 nM.

What about the TGI [49] of the same compound?
Its TGI is 214 nM.

And the GI50 [50]?
Its GI50 is 303 nM.

And the TGI [50]?
The TGI was 12000 nM.

What about the GI50 [51] of the same compound?
Its GI50 is 306 nM.

What about the TGI [51] of the same compound?
The TGI was > 100000 nM.

And the GI50 [52]?
The GI50 was 24.2 nM.

What about the TGI [52] of the same compound?
Its TGI is > 100000 nM.

What about the GI50 [53] of the same compound?
Its GI50 is 192 nM.

What about the TGI [53] of the same compound?
Its TGI is 472 nM.

What about the GI50 [54] of the same compound?
Its GI50 is 129 nM.

And the TGI [54]?
Its TGI is 345 nM.

What about the GI50 [55] of the same compound?
The GI50 was 338 nM.

What about the TGI [55] of the same compound?
Its TGI is > 100000 nM.

And the GI50 [56]?
The GI50 was 298 nM.

What about the TGI [56] of the same compound?
Its TGI is 40300 nM.

And the GI50 [57]?
The GI50 was 176 nM.

What about the TGI [57] of the same compound?
The TGI was 586 nM.
